Literature values in patent US10226441B2, “Aging inhibitor” (NIHON SIZEN HAKKOH CO., LTD., priority 2014, dated 2019).

Tested on: mice of the same species (SAM-P1, male)

Row | Structure (SMILES) | Average survival, Age in weeks (Non-Patent Literature 14) [weeks] | Average survival (Days) (Non-Patent Literature 14) | Average survival (Non-Patent Literature 14, listed as reduced CoQ10) [days]
1 | COC1=C(OC)C(=O)C(C/C=C(\C)CC/C=C(\C)CC/C=C(\C)CC/C=C(\C)CC/C=C(\C)CC/C=C(\C)CC/C=C(\C)CC/C=C(\C)CC/C=C(\C)CCC=C(C)C)=C(C)C1=O [CoQ10, coenzyme Q10] | 73.98 |  | 
2 | COc1c(O)c(C)c(C/C=C(\C)CC/C=C(\C)CC/C=C(\C)CC/C=C(\C)CC/C=C(\C)CC/C=C(\C)CC/C=C(\C)CC/C=C(\C)CC/C=C(\C)CCC=C(C)C)c(O)c1OC [CoQ10H2] | 74.234 | (519.64 ± 79.53) days | 519.64
